The record followed here is PMC9179981 (International Journal of Molecular Sciences, 2022).

Data set [1] deals with T1, AChE (EC 3.1.1.7, Electrophorus electricus) (Electrophorus electricus, UniProt O42275).
T1 construct: purchased Sigma Aldrich (Steinheim, Germany)
Briefly: biochemical. Here is the method: (§1) Ellman’s assay was used to assess the inhibitory activity of the newly synthesized compounds towards AChE and BuChE. […] An evaluation of the inhibitory potency towards AChE (EC 3.1.1.7, Electrophorus electricus) and BuChE (EC 3.1.1.8, equine serum) was performed using a modified spectrophotometric Ellman’s method. All necessary reagents for the study were purchased from Sigma Aldrich (Steinheim, Germany). […] The phosphate buffer (pH 8.0) was used as a solvent for reagents. The assay protocol included 14 µL of the tested compound in the nine different concentrations, and 40 µL of substrate acetylthiocholine (ATI) in concentration 1mM or 2mM for AChE and BuChE, respectively. Next, 76 µL of 0.4 mg/mL 5,5′-dithio-bis(2-nitrobenzoic) acid (DTNB) was added to the mixture. In the end, to start the reaction 10 µL of AChE (2U/mL) or BuChE (4U/mL) was added and the solution was mixed and incubated for 10 min. at 37 °C. As a control, instead of the tested compound, we used PBS. […] The experiments were performed independently and in triplicate. Data were expressed as mean ± SD.

Data set [2] deals with T2, BuChE (EC 3.1.1.8, equine serum) (Equus caballus, UniProt P81908).
T2 construct: purchased Sigma Aldrich (Steinheim, Germany); host or cells: equine serum
T2 sequence (P81908 whole entry): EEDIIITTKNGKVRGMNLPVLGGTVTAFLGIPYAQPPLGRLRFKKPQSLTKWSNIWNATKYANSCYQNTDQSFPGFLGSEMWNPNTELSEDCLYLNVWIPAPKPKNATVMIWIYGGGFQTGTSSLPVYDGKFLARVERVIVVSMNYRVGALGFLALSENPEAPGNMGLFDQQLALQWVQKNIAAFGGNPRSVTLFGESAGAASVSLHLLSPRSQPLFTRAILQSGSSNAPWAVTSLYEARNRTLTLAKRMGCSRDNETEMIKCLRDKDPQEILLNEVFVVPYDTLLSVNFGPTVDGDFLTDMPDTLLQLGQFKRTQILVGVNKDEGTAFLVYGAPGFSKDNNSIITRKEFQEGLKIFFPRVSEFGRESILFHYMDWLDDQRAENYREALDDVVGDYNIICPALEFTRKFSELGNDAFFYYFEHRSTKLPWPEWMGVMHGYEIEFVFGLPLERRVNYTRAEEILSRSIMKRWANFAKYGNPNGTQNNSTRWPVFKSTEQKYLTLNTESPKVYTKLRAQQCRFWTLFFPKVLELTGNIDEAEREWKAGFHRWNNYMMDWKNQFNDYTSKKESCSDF
Briefly: biochemical. It counts as biochemical. The protocol:
as §1

Data set [3] is described as follows: ORAC-FL antioxidant activity assay. Particulars: Trolox equivalents, mean ± SD; compounds 1–13 µM, tacrine 1–10 µM; pH 7.4.
Another data set concerns the target T3, AChE (Electrophorus electricus, UniProt O42275).
T3 construct: purchased Sigma Aldrich (Steinheim, Germany)
Put plainly: Kinetic characterization of AChE inhibition (Lineweaver-Burk). Particulars: Lineweaver-Burk plot; inhibitor 0, 200, 400, 800 nM. The format is biochemical. The protocol: […]. Lineweaver–Burk plots were prepared to reveal the type of inhibition. The experiments were performed in triplicate.
. The protocol of the kinetic study was similar to the previous inhibition study. A phosphate buffer (pH 8.0) was used as the solvent for all reagents. […]. For the BuChE kinetic analysis, we used four concentrations of the 3b derivative (0, 150, 200, 250 nM). Changes in absorbance were measured at 412 nm. All experiments were conducted independently and in triplicate. […]

The nature of the next data set: in vitro. The settings on record: human.
In a further data set the target is T4, BuChE (Equus caballus, UniProt P81908).
T4 construct: purchased Sigma Aldrich (Steinheim, Germany); host or cells: equine serum
T4 sequence (P81908 whole entry): as above
Put plainly: Kinetic characterization of BuChE inhibition (Lineweaver-Burk). It counts as biochemical, equine. Particulars: Lineweaver-Burk plot; inhibitor 0, 150, 200, 250 nM. The protocol:
Lineweaver–Burk plots were prepared to reveal the type of inhibition. The experiments were performed in triplicate.
The protocol of the kinetic study was similar to the previous inhibition study. A phosphate buffer (pH 8.0) was used as the solvent for all reagents. The tested medium consisted of 76 µL DTNB (0.4 mg/mL), 40 µL substrate (ATI) at chosen concentrations (35–350 µM), 10 µL of AChE (2 U/mL) or BuChE (4 U/mL), and 14 µL of the inhibitor. […] For the BuChE kinetic analysis, we used four concentrations of the 3b derivative (0, 150, 200, 250 nM). Changes in absorbance were measured at 412 nm. All experiments were conducted independently and in triplicate. To estimate the type of inhibition, reciprocal plots of 1/V versus 1/[S] were created.

Where [4] appears, read: Ellman's method, pH 8.0, 37 °C, mean ± SD of three independent experiments, read-out: AChE IC50 ± SD.
Setting [5] is: Ellman's method, pH 8.0, 37 °C, mean ± SD of three independent experiments.

Like-named read-outs stand apart in the source and are kept apart here.

T1 sequence (O42275 24-633): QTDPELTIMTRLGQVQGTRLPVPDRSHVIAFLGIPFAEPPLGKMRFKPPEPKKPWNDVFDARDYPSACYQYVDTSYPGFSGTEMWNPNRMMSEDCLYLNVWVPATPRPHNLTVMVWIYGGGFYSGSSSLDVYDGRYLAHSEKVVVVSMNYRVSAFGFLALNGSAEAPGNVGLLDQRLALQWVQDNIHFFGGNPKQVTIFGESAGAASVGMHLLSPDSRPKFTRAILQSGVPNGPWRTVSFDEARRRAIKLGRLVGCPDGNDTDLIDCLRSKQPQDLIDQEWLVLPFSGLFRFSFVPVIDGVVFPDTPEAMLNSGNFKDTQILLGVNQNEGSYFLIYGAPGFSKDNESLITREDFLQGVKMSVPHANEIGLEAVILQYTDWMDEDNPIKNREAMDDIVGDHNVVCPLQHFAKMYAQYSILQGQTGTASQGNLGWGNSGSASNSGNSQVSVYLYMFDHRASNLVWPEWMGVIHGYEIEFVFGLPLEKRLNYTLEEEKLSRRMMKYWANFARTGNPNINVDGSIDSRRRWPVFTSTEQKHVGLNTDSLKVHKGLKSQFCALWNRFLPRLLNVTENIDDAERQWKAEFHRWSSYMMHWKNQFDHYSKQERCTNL
T3 sequence (O42275 24-633): as above

With `Cl.O=C(NCCCCCCNc1c2c(nc3ccccc13)CCC2)c1c2ccccc2nc2ccccc12` [Compound 3e, N-[6-({1H,2H,3H-cyclopenta[b]quinolin-9-yl}amino)hexyl]acridine-9-carboxamide hydrochloride], the IC50 (usually the concentration that inhibits the measured activity by half) in data set [1] (setting [4]) worked out at 395 ± 36.1 nM. Besides, in data set [1] (IC50(BuChE)/IC50(AChE)), the “Selectivity for AChE” value is reported as 0.49. For the same molecule, the “Selectivity for BuChE” value in data set [2] (IC50(AChE)/IC50(BuChE)) stood at 2.02.

For the molecule `c1ccc2c(NCCCCCCCNc3c4c(nc5ccccc35)CCCC4)c3c(nc2c1)CCCC3` [Bistacrine, bistacrine, reference compound], the “Selectivity for AChE” value in data set [1] was found to be 0.56. For the same molecule, the IC50 in data set [1] (pH 8, read-out: AChE IC50 ± SD) stood at 405 ± 28.6 nM; in data set [2] (pH 8, read-out: BuChE IC50 ± SD) it was 226 ± 30.4 nM. Besides, the “Selectivity for BuChE” value in data set [2] turned out to be 1.79.

Take `Cl.O=C(NCCCCNc1c2c(nc3ccccc13)CCC2)c1c2ccccc2nc2ccccc12` [Compound 3c, N-[4-({1H,2H,3H-cyclopenta[b]quinolin-9-yl}amino)butyl]acridine-9-carboxamide hydrochloride]: the IC50 was found to be 273 ± 22.1 nM in data set [1] (setting [4]) and 200 ± 18.1 nM in data set [2] (setting [5]). The “Selectivity for AChE” value in data set [1] (IC50(BuChE)/IC50(AChE)) came to 0.73. In addition, the “Selectivity for BuChE” value in data set [2] (IC50(AChE)/IC50(BuChE)) is 1.36.

For `Cl.O=C(NCCCCCNc1c2c(nc3ccccc13)CCC2)c1c2ccccc2nc2ccccc12` [Compound 3d, N-[5-({1H,2H,3H-cyclopenta[b]quinolin-9-yl}amino)pentyl]acridine-9-carboxamide hydrochloride], in data set [1] (IC50(BuChE)/IC50(AChE)), the “Selectivity for AChE” value is 0.043. Besides, the IC50 in data set [2] (setting [5]) was found to be 173 ± 18.9 nM. Moreover, the “Selectivity for BuChE” value in data set [2] (IC50(AChE)/IC50(BuChE)) was 23.39.

On to `Nc1c2c(nc3ccccc13)CCCC2` [Tacrine, tacrine, reference compound], for which the “ORAC (TE)” value in data set [3] stood at 0.0132 ± 0.009 TE.

In the case of `Cl.O=C(NCCCCCCCNc1c2c(nc3ccccc13)CCC2)c1c2ccccc2nc2ccccc12` [Compound 3f, N-[7-({1H,2H,3H-cyclopenta[b]quinolin-9-yl}amino)heptyl]acridine-9-carboxamide hydrochloride], the IC50 in data set [1] (setting [4]) is 113 ± 7.14 nM; in data set [2] (setting [5]) it was 204 ± 16 nM. Also, the “Selectivity for AChE” value in data set [1] (IC50(BuChE)/IC50(AChE)) amounted to 1.79. Further, the “Selectivity for BuChE” value in data set [2] (IC50(AChE)/IC50(BuChE)) is 0.56. The “Type of AChE inhibition” value on AChE was “mixed type of inhibition”. Also, the IC50 at 24 h in “in vitro” (human hepatic stellate cells (HSCs)) came out at 49800 ± 4360 nM. Besides, the “ORAC (TE)” value in data set [3] is recorded as 0.3254 ± 0.014 TE.

Take `Cl.O=C(NCCCNc1c2c(nc3ccccc13)CCC2)c1c2ccccc2nc2ccccc12` [Compound 3b, N-[3-({1H,2H,3H-cyclopenta[b]quinolin-9-yl}amino)propyl]acridine-9-carboxamide hydrochloride]: the IC50 in data set [1] was found to be 272 ± 35.1 nM; in data set [2] (setting [5]) it was 104 ± 7.63 nM. In addition, the “Type of BuChE inhibition” value on BuChE is “mixed type of inhibition”. Also, half-maximal inhibition in “in vitro” (IC50 at 24 h) was put at 32000 ± 2050 nM. Further, the “ORAC (TE)” value in data set [3] is reported as 0.4614 ± 0.056 TE.

With `Cl.O=C(NCCCCCCCCNc1c2c(nc3ccccc13)CCC2)c1c2ccccc2nc2ccccc12` [Compound 3g, N-[8-({1H,2H,3H-cyclopenta[b]quinolin-9-yl}amino)octyl]acridine-9-carboxamide hydrochloride], the IC50 stood at 701 ± 67.1 nM in data set [1] (setting [4]) and 178 ± 17 nM in data set [2] (setting [5]). In addition, the “Selectivity for AChE” value in data set [1] (IC50(BuChE)/IC50(AChE)) is 0.25. Also, the “Selectivity for BuChE” value in data set [2] (IC50(AChE)/IC50(BuChE)) is listed as 3.95.

For `Cl.O=C(NCCNc1c2c(nc3ccccc13)CCC2)c1c2ccccc2nc2ccccc12` [Compound 3a, N-[2-({1H,2H,3H-cyclopenta[b]quinolin-9-yl}amino)ethyl]acridine-9-carboxamide hydrochloride], the half-maximal inhibitory concentration (IC50) in data set [1] (setting [4]) was determined as 8620 ± 606 nM; in data set [2] (setting [5]) it was 540 ± 66.9 nM. In addition, the “Selectivity for AChE” value in data set [1] (IC50(BuChE)/IC50(AChE)) was found to be 0.063. In addition, the “Selectivity for BuChE” value in data set [2] (IC50(AChE)/IC50(BuChE)) is 15.96.

For `Cl.O=C(NCCCCCCCCCNc1c2c(nc3ccccc13)CCC2)c1c2ccccc2nc2ccccc12` [Compound 3h, N-[9-({1H,2H,3H-cyclopenta[b]quinolin-9-yl}amino)nonyl]acridine-9-carboxamide hydrochloride], the IC50 in data set [1] (setting [4]) was found to be 669 ± 83.4 nM. Also, the “Selectivity for AChE” value in data set [1] (IC50(BuChE)/IC50(AChE)) came to 0.34. Moreover, the “Selectivity for BuChE” value in data set [2] (IC50(AChE)/IC50(BuChE)) turned out to be 2.95.
